Data published in patent US12285448B2, “Bifidobacterium breve capable of relieving rheumatoid arthritis and application thereof” (Jiangnan University, priority 2020, dated 2025).

How the values were obtained:
Type in all cases: in vivo, Wistar rats
Th17 cells = assay: Proportion of Th17 cells in the mesenteric lymph nodes of rats with rheumatoid arthritis (flow cytometry); details: four weeks after booster immunization; model group 13.97 times the normal group
Procedure: (§1) MRS liquid media (containing 0.05 g/100 mL cysteine) were respectively inoculated with the B. breve CCFM1078 obtained in Example 1 and LGG and anaerobically cultured at 37° C. for 18 h, and then transferred into fresh MRS liquid media (containing 0.05 g/100 mL cysteine) and cultured at same conditions for 24 h. Bacteria were centrifuged at 6000 g for 15 min, washed with 0.9 g/100 mL normal saline, and centrifuged again at 6000 g for 10 min to obtain the bacteria. The bacteria of the B. breve CCFM1078 and the LGG were resuspended to a cell concentration of 5×10^9 CFU/mL with sterile normal saline with a concentration of 0.9 g/100 mL, and bacterial solutions containing the B. breve CCFM1078 and the LGG were obtained.
(§2) Sixty 7-week-old SPF (Specific Pathogen Free) female Wistar rats were raised at a room temperature of 22-24° C., a humidity of 40-60%, and an alternation of 12 h/12 h day and night. After being raised for 1 week under the condition of ad libitum, the rats were randomly divided into 5 groups with 12 rats in each group. The 5 groups were a normal group, a model group, a drug group administered with methotrexate by gavage, an LGG group administered with LGG by gavage, and a CCFM1078 group administered with B. breve CCFM1078 by gavage.
The experiment was started after the rats were adaptively raised for one week, and lasted for eight weeks. […]

IL-10 = assay: Level of IL-10 in the serum of rats with rheumatoid arthritis (ELISA); details: four weeks after booster immunization; model group 1.64 ng/L, normal group 1.59 ng/L
Procedure: as §1
(§3) Sixty 7-week-old SPF (Specific Pathogen Free) female Wistar rats were raised at a room temperature of 22-24° C., a humidity of 40-60%, and an alternation of 12 h/12 h day and night. After being raised for 1 week under the condition of ad libitum, the rats were randomly divided into 5 groups with 12 rats in each group. […]
Four weeks after the booster immunization, blood was collected and the rats were sacrificed. The rat serum was collected, and the level of IL-10 in the serum of the rats in each group were determined by an ELISA kit.

TNFα = assay: Level of TNFα in the serum of rats with rheumatoid arthritis (ELISA); details: four weeks after booster immunization; model group 14 ng/L, normal group 9.8 ng/L
Procedure: as §1
as §3, with “60” for “Sixty”
(§4) Four weeks after the booster immunization, blood was collected and the rats were sacrificed. The rat serum was collected, and the levels of IL-1β and TNFα in the serum of the rats in each group were determined by an ELISA kit.

[1] = Content of short-chain fatty acids in the feces of rats with rheumatoid arthritis (GCMS); details: four weeks after booster immunization
Procedure: as §1, §2
The experiment was started after the rats were adaptively raised for one week, and lasted for eight weeks. During the two weeks before modelling, each rat in the normal group, the drug group and the model group was administered by gavage with 1.5 mL of sterile normal saline with a concentration of 0.9 g/100 mL per day, each rat in the LGG group was administered by gavage with 1.5 mL of an LGG bacterial solution with a concentration of 5×10^9 CFU/mL per day, and each rat in the CCFM1078 group was administered by gavage with 1.5 mL of a B. breve CCFM1078 bacterial solution with a concentration of 5×10^9 CFU/mL per day. The third week to the fourth week was a modelling period. On the first day of modelling, a bovine type II collagen solution (Chondrex, 20022) and a Freund's incomplete adjuvant (Chondrex, 7002) were mixed in equal volumes and emulsified to form a complete emulsion (the emulsion was prepared for immediate use, and the prepared emulsion was used within 1 h). A rat was anesthetized with isoflurane and immobilized, the whole rat tail root was disinfected with 75% (v/v) alcohol, and then the rat was subjected to primary immunization. In the primary immunization, 0.15 mL of the complete emulsion was accurately pipetted and injected subcutaneously at 1.5 cm from the tail root of the rat. One week later, booster immunization was conducted by the same treatment method, that is, 0.15 mL of the complete emulsion was accurately pipetted and injected subcutaneously at 2.0 cm from the tail root of the rat. The rats in the normal group were injected with only the same volume of sterile normal saline by the same method. […]

IL-1β = assay: Level of IL-1β in the serum of rats with rheumatoid arthritis (ELISA); details: four weeks after booster immunization; model group 835 ng/L, normal group 143 ng/L
Procedure: as §1
as §3, with “60” for “Sixty”
as §4

[2] = tested on: rats with rheumatoid arthritis (type II collagen-induced arthritis model); assay: Body weight, joint thickness and clinical score of rats with type II collagen-induced arthritis; details: CIA rats
Procedure: A Type II Collagen-induced arthritis (CIA) model is a classic RA animal model. The onset of CIA has many similarities with rheumatoid arthritis (RA), such as synovial hyperplasia, pannus formation, and cartilage destruction. At present, […]. Therefore, in Examples 5-9, a type II collagen-induced arthritis (CIA) model was used as an RA animal model, and LGG was used as a control.
as §1
60 7-week-old SPF (Specific Pathogen Free) female Wistar rats were raised at a room temperature of 22-24° C., a humidity of 40-60%, and an alternation of 12 h/12 h day and night. […]

SMILES: CN(Cc1cnc2nc(N)nc(N)c2n1)c1ccc(C(=O)N[C@@H](CCC(=O)O)C(=O)O)cc1 [methotrexate, Methotrexate]
- proportion of Th17 cells in the mesenteric lymph nodes relative to the model group (Th17 cells): 12.7%
- concentration of IL-10 in the serum (IL-10): 1.62 ng/L
- level of TNFα in the serum (TNFα): 12 ng/L
- content of acetic acid in the feces relative to the model group [1]: 1.1 times
- content of butyric acid in the feces relative to the model group [1]: 1.3 times
- content of isobutyric acid in the feces relative to the model group [1]: 1.3 times
- content of pentanoic acid in the feces relative to the model group [1]: 1 times
- content of propionic acid in the feces relative to the model group [1]: 1.2 times
- level of IL-1β in the serum (IL-1β): 159 ng/L
- paw thickness (comparison in words) ([2]; FIG. 3): significantly lower than that of the rats in the model group and restored to normal in the last week
- body weight change (trend) ([2]; gavage, after booster immunization, FIG. 2): not significant
